In patent US20250224398A1, “GASDERMIN E EXPRESSION IN HUMAN T CELLS AS A MARKER FOR PROINFLAMMATORY T CELL FUNCTIONS” (LEIBNIZ-INSTITUT FÜR NATURSTOFF-FORSCHUNG UND …, priority 2022, published 2025):
Entries after “also recorded” stand apart in the source; their conditions may differ. Residues, ends and D or L forms follow the SMILES beside them. *: point of attachment. Cbz = O=C(OCc1ccccc1)*; CH2F = FC*

Legend:
SGC-7901 and MKN-45 = conditions: cited from earlier work
human Th17 cells [1] = assay: Cytokine secretion by stimulated Th17 cells into culture supernatants (ELISA / Luminex); format: cell-based; conditions: for IL-1α secretion by Th17 cells: Th17 cells stimulated with anti-CD3 and anti-CD28 mAbs for 5 days, ELISA of supernatants
Method: (§1) Human T cells were cultured in RPMI 1640 medium supplemented with 1% (v/v) GlutaMAX™ Supplement, 1% (v/v) MEM nonessential Amino Acids Solution (100×), 1% (v/v) sodium pyruvate (100 mM), 0.1% 2-Mercaptoethanol (50 mM) (all from Gibco™), 1% (v/v) Penicillin-Streptomycin (Sigma-Aldrich), penicillin (500 U/ml), streptomycin (500 μg/ml), and 10% (v/v) fetal calf serum (Sigma-Aldrich). In some experiments, T cell culture was performed in the presence of recombinant cytokines (IL-6, 50 ng/ml; IL-12, 10 ng/ml; IL-4, 10 ng/ml; TGF-b, 10 ng/ml; IL-1b, 20 ng/ml; all from R&D Systems) or neutralizing antibodies (anti-IL-1a, […], BD Biosciences). […] T cells were stimulated with plate-bound anti-CD3 (2 μg/ml, clone TR66) and anti-CD28 mAbs (2 μg/ml, clone CD28.2; both from BD Biosciences) for 48 h before transfer into uncoated wells for another 3 days for a total culture period of 5 days, unless indicated otherwise in the legends. T cell clones were generated in non-polarizing conditions as described previously following single-cell deposition with fluorescence-activated cell sorting or by limiting dilution cloning (Gross, O. et al. Inflammasome activators induce interleukin-1alpha secretion via distinct pathways with differential requirement for the protease function of caspase-1. Immunity 36, 388-400, doi: 10.1016/j.immuni.2012.01.018 (2012)). Human monocytes were isolated from PBMCs by positive selection with CD14-specific MicroBeads (Miltenyi Biotec). Cells were stimulated with or without 1 μg/mL ultrapure lipopolysaccharide (LPS)-EB (t1r1-3pelps, InvivoGen) for 24 h and nigericin (10 μg/mL, InvivoGen) or ATP (5 mM, Thermo Fisher Scientific) for the last 30 mins. In some experiments, CD14^+ magnetic activated cell sorting (MACS)-sorted monocytes were differentiated into macrophages for 7 days in the presence of GM-CSF (R&D Systems).
(§2) Intracellular cytokine and transcription factor staining was performed as described before (Noster, R. et al. IL-17 and GM-CSF expression are antagonistically regulated by human T helper cells. Sci Transl Med 6, 241ra280, doi: 10.1126/scitranslmed.3008706 (2014)). Cells were stained with the following antibodies: anti-IL-1a-PE (364-3B3-14), anti-IL-4-FITC (MP4-25D2 5), anti-IL-17A-Pacific Blue (BL168), anti-IFN-g-APC-Cy7 (4S.B3), anti-IL-10-PE-Cy7 (JES3-9D7), (all from Biolegend), anti-RORgt-APC (AFKJS-9, eBioscience), anti-Ki67-BV421 (Biolegend), and anti-IL-1R1-PE (FAB269P, R&D Systems). Then, they were analyzed with a BD LSRFortessa (BD Biosciences), a CytoFLEX Flow Cytometer (Beckman Coulter) or a MACSQuant analyzer (Miltenyi Biotec). Flow cytometry data were analyzed with FlowJo software (Tree Star) or with Cytobank (Cytobank Inc.). The concentrations of cytokines in cell culture supernatants were measured by ELISA (Duoset ELISA kits from R&D Systems, Human Caspase-1SimpleStep ELISA Kit (Abcam) or by Luminex (eBioscience) according to standard protocols as indicated in the corresponding figure legends. Counting beads (CountBright™ Absolute Counting Beads, Thermo Fisher Scientific) were used to normalize for cell numbers if analysis of cumulative supernatants obtained from 5-day cell cultures was performed.

human Th17 cells [2] = assay: Intracellular cytokine staining and flow cytometry of Th17 cells; format: cell-based
Method: as §1, with “In some experiments, CD14^+ magnetic activated cell sorting (MACS)-sorted monocytes were differentiated into macrophages for 7 days in the presence of GM-CSF (R&D Systems).” left out
as §2, with “Cells were stained with the following antibodies: anti-IL-1a-PE (364-3B3-14), anti-IL-4-FITC (MP4-25D2 5), anti-IL-17A-Pacific Blue (BL168), anti-IFN-g-APC-Cy7 (4S.B3), anti-IL-10-PE-Cy7 (JES3-9D7), (all from Biolegend), anti-RORgt-APC (AFKJS-9, eBioscience), anti-Ki67-BV421 (Biolegend), and anti-IL-1R1-PE (FAB269P, R&D Systems).” left out

human Th17 cells [3] = assay: Western blot / Jess Simple Western of Th17 cell lysates for caspase and GSDME cleavage; format: cell-based; conditions: for GSDME cleavage / caspase-3 cleavage: Th17 cells stimulated 5 days with anti-CD3 and anti-CD28 mAbs
Method: as §1
Cells were lysed in RIPA buffer (50 mM Tris, 150 mM NaCl, 1 mM EDTA, 0.1% NP-40, pH 7.5) containing protease inhibitor (Roche) and PhosphoSTOP Easypack (Roche). The protein concentrations of cell lysates were determined with a Pierce™ BCA Protein Assay Kit (Thermo Fisher Scientific™). Total protein ([…]) was boiled with 4× Laemmli sample buffer (Bio-Rad Laboratories) containing 355 mM 2-mercaptoethanol (Thermo Fisher Scientific) at 99° C. for 10 min. The supernatants and lysates were separated by SDS-polyacrylamide gel electrophoresis (PAGE) and transferred to a PVDF membrane (Bio-Rad Laboratories) by using a Mini-Protean system (Bio-Rad Laboratories) according to the manufacturer's protocol. The following primary antibodies were used for immunoblotting: mouse anti-human caspase-8 (Cell Signaling Technology), rabbit anti-human caspase-1 (Cell Signaling Technology), rabbit anti-human IL-1α (Abcam), mouse anti-human GAPDH (Merck millipore), mouse anti-human b-actin (Cell Signaling Technology), and rabbit anti-human gasdermin E (Abcam), rabbit anti-human caspase-3 (Cell Signaling Technology), mouse anti-human caspase-8 (Cell Signaling Technology), rabbit anti-human gasdermin D (Cell Signaling Technology), rabbit anti-human cleaved gasdermin D (Cell Signaling Technology), rabbit anti-NLRP3 (Cell Signaling Technology). HRP-conjugated anti-mouse and anti-rabbit IgG antibodies (Cell Signaling Technology) were used as secondary antibodies. Immunoreactive bands were detected by Pierce™ ECL Western Blotting Substrate or SuperSignal™ West Femto Maximum Sensitivity Substrate (both from Thermo Scientific™). Chemiluminescence signals were recorded with an Odyssey Imaging system (LI-COR Biosciences) and analyzed on Image Studio™ Lite (LI-COR Biosciences). Image contrast was enhanced in a linear fashion when necessary. Protein lysates were also prepared for automated Western blotting using a Jess System (ProteinSimple) according to the manufacturer's instructions. […]

human monocytes = assay: IL-1a secretion by LPS/nigericin stimulated monocytes (ELISA); format: cell-based; conditions: LPS 24 h, nigericin 30 min
Method: as §1, with “Human monocytes were isolated from PBMCs by positive selection with CD14-specific MicroBeads (Miltenyi Biotec). Cells were stimulated with or without 1 μg/mL ultrapure lipopolysaccharide (LPS)-EB (t1r1-3pelps, InvivoGen) for 24 h and nigericin (10 μg/mL, InvivoGen) or ATP (5 mM, Thermo Fisher Scientific) for the last 30 mins. In some experiments, CD14^+ magnetic activated cell sorting (MACS)-sorted monocytes were differentiated into macrophages for 7 days in the presence of GM-CSF (R&D Systems).” left out

[4] = test system: patients suffering from the rare autoinflammatory Schnitzler syndrome; assay: Treatment of Schnitzler syndrome patients with IL-1β-neutralizing antibody; IL-1α secretion of ex vivo Th17 cell clones (Luminex) and clinical symptoms; format: in vivo, human; conditions: treatment for 6 months; Th17 cell clones restimulated with CD3 and CD28 mAbs for 5 days
Method: Peripheral blood mononuclear cells (PBMCs) were isolated by density gradient centrifugation using Ficoll-Paque Plus (GE Healthcare). CD4^+ T cells were isolated from fresh PBMC by positive selection with CD4-specific MicroBeads (Miltenyi Biotec) using an autoMACS Pro Separator. […]
as §2, with “Cells were stained with the following antibodies: anti-IL-1a-PE (364-3B3-14), anti-IL-4-FITC (MP4-25D2 5), anti-IL-17A-Pacific Blue (BL168), anti-IFN-g-APC-Cy7 (4S.B3), anti-IL-10-PE-Cy7 (JES3-9D7), (all from Biolegend), anti-RORgt-APC (AFKJS-9, eBioscience), anti-Ki67-BV421 (Biolegend), and anti-IL-1R1-PE (FAB269P, R&D Systems).” left out, “performed. […]” for “performed.”

[5] = test system: patients suffering from the rare autoinflammatory Schnitzler syndrome; conditions: treatment for 6 months; cited from earlier work
[6] = Th17 cells, restimulation with PMA and ionomycin in presence or absence of BFA
[7] = anti-CD3 and anti-CD28 mAb 5 days, PMA and ionomycin restimulation

## O=c1[nH]cc(F)c(=O)[nH]1 [5-FU]
SGC-7901 and MKN-45; SGC-7901 and MKN-45 treated with 5-FU
  cell viability: significantly decreased
SGC-7901 and MKN-45; after 5-FU treatment compared to control group
  percentage of PI and APC Annexin-V double positive cells: elevated
SGC-7901 and MKN-45
  release of LDH: elevated

## CC(=O)N[C@@H](Cc1ccc(O)cc1)C(=O)N[C@H](C(=O)N[C@@H](C)C(=O)N[C@@H](CC(=O)O)C(=O)CCl)C(C)C [Ac-YVAD-CMK]
Human Th17 cells [1]
  IL-1α secretion by Th17 cells: did not inhibit; also recorded: significantly elevated

## C[C@H]1CCC/C=C/[C@@H]2C[C@H](O)C[C@H]2[C@H](O)/C=C/C(=O)O1 [BFA, brefeldin A]
Human Th17 cells [1]; [6]
  secretion of IL17A into the extracellular space: reduced
Human Th17 cells [2]; [6]
  intracellular IL-1α expression: not influenced

## CC(C)(O)c1coc(S(=O)(=O)NC(=O)Nc2c3c(cc4c2CCC4)CCC3)c1 [MCC950]
Human Th17 cells [1]
  IL-1α secretion by Th17 cells: significantly reduced; also recorded: significantly inhibited
Human Th17 cells [3]
  GSDME cleavage: significant reduction
  caspase-3 cleavage: significant reduction
Human Th17 cells [3]; Th17 cells stimulated, day 5
  caspase-8 cleavage: less pronounced

## COC(=O)CC[C@H](NC(=O)[C@H](CC(=O)OC)NC(=O)OCc1ccccc1)C(=O)N[C@H](C(=O)N[C@@H](CC(=O)OC)C(=O)CF)C(C)C [Z-DEVD-FMK]
Human Th17 cells [1]
  IL-1α secretion by Th17 cells: abrogating
Human Th17 cells [3]
  GSDME cleavage: reduced

## CC[C@H](C)[C@H](NC(=O)OCc1ccccc1)C(=O)N[C@@H](CCC(=O)OC)C(=O)N[C@H](C(=O)N[C@@H](CC(=O)OC)C(=O)CF)[C@@H](C)O [Z-IETD-FMK] (Cbz-IE(OMe)TD(OMe)-CH2F)
Human Th17 cells [1]
  IL-1α secretion by Th17 cells: abrogating
Human Th17 cells [3]
  GSDME cleavage: reduced
  caspase-3 cleavage: abrogation

## CSCC[C@@H](C=O)NC(=O)[C@H](CC(C)C)NC(=O)[C@H](CC(C)C)NC(C)=O [calpain inhibitor, N-Acetyl-L-leucyl-L-leucyl-L-methioninal] (Ac-Leu-Leu-Met-aldehyde)
Human Th17 cells [1]
  IL-1α secretion by Th17 cells: dose-dependent reduction
Human monocytes
  LPS/nigericin-induced IL-1a secretion by monocytes: not dependent on calpain

## C/C=C(/C)C(=O)O[C@H]1C(C)=C2[C@H]([C@@H]1OC(=O)CCCCCCC)[C@@](C)(OC(C)=O)C[C@H](OC(=O)CCC)[C@@]1(O)[C@H]2OC(=O)[C@@]1(C)O [thapsigargin]
Human Th17 cells [1]
  IL-1α secretion by Th17 cells: increased

## canakinumab: IL-1β-neutralizing antibody
[4]
  IL-1α production by Th17 cells of Schnitzler syndrome patients: significant reduction
[5]
  clinical symptoms: complete resolution

## gevokizumab: IL-1β-neutralizing antibody
[4]
  IL-1α production by Th17 cells of Schnitzler syndrome patients: significant reduction
[5]
  clinical symptoms: complete resolution

B1: recombinant IL-1α: recombinant IL-1α applied exogenously to Th17 cells (protein, UniProt P01583 113-271, looked up)
Interleukin-1 alpha: SAPFSFLSNVKYNFMRIIKYEFILNDALNQSIIRANDQYLTAAALHNLDEAVKFDMGAYKSSKDDAKITVILRISKTQLYVTAQDEDQPVLLKEMPEIPKTITGSETNLLFFWETHGTKNYFTSVAHPNLFIATKQDYWVCLAGGPPSITDFQILENQA
Human Th17 cells [2]; [7]
  IFN-γ expression by Th17 cells: upregulation
  IL-10 expression by Th17 cells: reduced
  IL-17A expression by Th17 cells: upregulation
